The target in this assay is T1, TmGalA (Thermotoga maritima, UniProt G4FEF4).
T1 construct: gene galA
The assay can be described thus: time-dependent inactivation, dilution assay, residual activity with 4-nitrophenyl α-D-galactopyranoside. It counts as biochemical. Particulars: covalent, irreversible inactivator; Ki from kobs versus concentration (kinact/Ki analysis); 50 mM HEPES pH 7.4, 37 °C, BSA 1 mg/mL; read-out: Km (μM) / Ki.

T1 sequence (G4FEF4 whole entry): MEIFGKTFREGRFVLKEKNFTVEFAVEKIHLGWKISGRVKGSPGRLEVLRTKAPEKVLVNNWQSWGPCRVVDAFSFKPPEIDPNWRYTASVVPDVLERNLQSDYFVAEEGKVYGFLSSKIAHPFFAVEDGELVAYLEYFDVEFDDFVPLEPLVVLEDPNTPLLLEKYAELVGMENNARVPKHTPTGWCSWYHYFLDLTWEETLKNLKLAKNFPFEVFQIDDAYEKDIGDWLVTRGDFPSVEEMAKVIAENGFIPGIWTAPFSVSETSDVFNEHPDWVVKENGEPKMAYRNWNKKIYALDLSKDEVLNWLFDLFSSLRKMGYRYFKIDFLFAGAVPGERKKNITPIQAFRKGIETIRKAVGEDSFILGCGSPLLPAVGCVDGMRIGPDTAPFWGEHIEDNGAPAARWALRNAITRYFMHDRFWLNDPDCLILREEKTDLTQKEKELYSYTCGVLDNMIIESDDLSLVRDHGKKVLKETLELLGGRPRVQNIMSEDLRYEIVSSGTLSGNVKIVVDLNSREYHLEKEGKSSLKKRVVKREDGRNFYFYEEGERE

`OC[C@@H]1[C@H](O)[C@H](O)[C@@H](O)[C@H]2O[C@@H]12` [compound 8, cyclophellitol analog 8]: the KI (inactivation) was 161 ± 18 µM.

For the origin of these results see paper PMC6089974 (Nature Communications, 2018).
